Experiments:
ECHGC = test: Pre-emergence action at 320 g/ha against ECHGC; assay type: in vivo, Echinochloa crus-galli; details: visual scoring after about 3 weeks vs untreated controls
Source text: (§1) b) Seeds of monocotyledonous and dicotyledonous weed plants and crop plants are placed in plastic or organic planting pots and covered with soil. The compounds of the invention, formulated in the form of wettable powders (WP) or as emulsion concentrates (EC), are then applied onto the surface of the covering soil as aqueous suspension or emulsion with addition of 0.5% additive at a water application rate of 600 l/ha (converted). After the treatment, the pots are placed in a greenhouse and kept under good growth conditions for the trial plants. After about 3 weeks, the effect of the preparations is scored visually in comparison with untreated controls as percentages. For example, 100% activity=the plants have died, 0% activity=like control plants. Tables 13 to 26 below show the effects of selected compounds of the general formula (I) on various harmful plants and at an application rate corresponding to 320 g/ha, which were obtained by the experimental procedure mentioned above.

MATIN [1] = test: Pre-emergence action at 320 g/ha against MATIN; assay type: in vivo, Tripleurospermum inodorum (Matricaria inodora); details: visual scoring after about 3 weeks vs untreated controls
Source text: as §1

LOLRI [2] = test: Pre-emergence action at 320 g/ha against LOLRI; assay type: in vivo, Lolium rigidum; details: visual scoring after about 3 weeks vs untreated controls
Source text: as §1

SETVI [3] = test: Pre-emergence action at 320 g/ha against SETVI; assay type: in vivo, Setaria viridis; details: visual scoring after about 3 weeks vs untreated controls
Source text: as §1

ALOMY [4] = test: Pre-emergence action at 320 g/ha against ALOMY; assay type: in vivo, Alopecurus myosuroides; details: scored visually after about 3 weeks vs untreated controls (100% = plants have died)
In short: (§2)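 Weed and crop seeds sown in pots and covered with soil; WP or EC formulations sprayed pre-emergence onto the soil surface at 320 g/ha with 0.5% additive in 600 l/ha water. Kept in greenhouse; after about 3 weeks activity scored visually as % versus untreated controls (100% = plants dead, 0% = as control).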

AMARE [5] = test: Pre-emergence action at 320 g/ha against AMARE; assay type: in vivo, Amaranthus retroflexus; details: visual scoring after about 3 weeks vs untreated controls
In short: as §2

AVEFA = test: Pre-emergence action at 320 g/ha against AVEFA; assay type: in vivo; details: visual scoring after about 3 weeks vs untreated controls
Source text: as §1

VIOTR = test: Pre-emergence action at 320 g/ha against VIOTR; assay type: in vivo, Viola tricolor; details: dosage 320 g/ha
In short: as §2

POLCO = test: Pre-emergence action at 320 g/ha against POLCO; assay type: in vivo, Fallopia convolvulus (Polygonum convolvulus); details: visual scoring after about 3 weeks vs untreated controls
In short: as §2

VERPE [6] = test: Pre-emergence action at 320 g/ha against VERPE; assay type: in vivo, Veronica persica; details: visual scoring after about 3 weeks vs untreated controls
Source text: as §1

LOLRI [7] = test: Post-emergence action against LOLRI, 1.28 kg/ha; assay type: in vivo, Lolium rigidum; details: dosage 1280 g/ha, visual rating about 3 weeks after treatment vs untreated controls
Procedure: • a) Seeds of mono- and dicotyledonous weed plants are placed in plastic pots in sandy loam soil (twin sowing with one species each of mono- or dicotyledonous weed plants per pot), covered with soil and cultivated in a greenhouse under controlled growth conditions. 2 to 3 weeks after sowing, the test plants are treated at the one-leaf stage. The compounds of the invention, formulated in the form of wettable powders (WP) or as emulsion concentrates (EC), are applied to the green parts of the plants as aqueous suspension or emulsion with addition of 0.5% additive at a water application rate equivalent to 600 litres per hectare. After the test plants have been kept in the greenhouse under optimum growth conditions for about 3 weeks, the activity of the preparations is rated visually in comparison to untreated controls. For example, 100% activity=the plants have died, 0% activity=like control plants. As shown by the results, compounds of the general formula (I) of the invention, in post-emergence treatment, have very good herbicidal efficacy (90% to 100% herbicidal action) against harmful plants such as Abutilon theophrasti, Digitaria sanguinalis, Echinochloa crus-galli, Matricaria inodora, Poa annua, at an application rate of 1.28 kg of active substance per hectare.

AMARE [8] = test: Pre-emergence action against AMARE, 1280 g/ha; assay type: in vivo, Amaranthus retroflexus; details: scored visually after about 3 weeks vs untreated controls (100% = plants have died)
In short: (§3)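 Greenhouse pre-emergence test on sown seeds in sandy loam; soil-surface spray of formulated compound with 0.5% additive at 600 L/ha water. Scored visually, % vs untreated, after about 3 weeks.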

POAAN [9] = test: Pre-emergence action against POAAN, 1280 g/ha; assay type: in vivo, Poa annua; details: visual scoring after about 3 weeks vs untreated controls, 100% = plants have died, 0% = like control plants
In short: as §3

VERPE [10] = test: Post-emergence action against VERPE, 1.28 kg/ha; assay type: in vivo, Veronica persica; details: dosage 1280 g/ha, visual rating about 3 weeks after treatment vs untreated controls (100% = plants died)
In short: (§4)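 Visual rating against untreated plants about 3 weeks after spraying gives % activity, where 0% means like controls and 100% means plants died. Plants were treated post-emergence at the one-leaf stage with compound formulated as wettable powder or emulsion concentrate, applied at 600 L water/ha plus 0.5% additive.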

LOLRI [11] = test: Pre-emergence action against LOLRI, 1280 g/ha; assay type: in vivo, Lolium rigidum; details: visual scoring after about 3 weeks vs untreated controls, 100% = plants have died, 0% = like control plants
In short: as §3

DIGSA [12] = test: Post-emergence action against DIGSA, 1.28 kg/ha; assay type: in vivo, Digitaria sanguinalis; details: dosage 1280 g/ha, visual rating about 3 weeks after treatment vs untreated controls
In short: as §4

DIGSA [13] = test: Pre-emergence action against DIGSA, 1280 g/ha; assay type: in vivo, Digitaria sanguinalis; details: visual scoring after about 3 weeks vs untreated controls, 100% = plants have died, 0% = like control plants
In short: as §3

STEME [14] = test: Post-emergence action against STEME, 1.28 kg/ha; assay type: in vivo, Stellaria media; details: dosage 1280 g/ha, visual rating about 3 weeks after treatment vs untreated controls (100% = plants died)
In short: as §4

SETVI [15] = test: Post-emergence action against SETVI, 1.28 kg/ha; assay type: in vivo, Setaria viridis; details: dosage 1280 g/ha, visual rating about 3 weeks after treatment vs untreated controls
In short: as §4

MATIN [16] = test: Pre-emergence action against MATIN, 1280 g/ha; assay type: in vivo, Tripleurospermum inodorum (Matricaria inodora); details: scored visually after about 3 weeks vs untreated controls (100% = plants have died)
In short: as §3

ECHCG [17] = test: Post-emergence action against ECHCG, 1.28 kg/ha; assay type: in vivo, Echinochloa crus-galli; details: dosage 1280 g/ha, visual rating about 3 weeks after treatment vs untreated controls
In short: as §4

POAAN [18] = test: Post-emergence action against POAAN, 1.28 kg/ha; assay type: in vivo, Poa annua; details: dosage 1280 g/ha, visual rating about 3 weeks after treatment vs untreated controls
In short: as §4

ALOMY [19] = test: Post-emergence action against ALOMY, 1.28 kg/ha; assay type: in vivo, Alopecurus myosuroides; details: dosage 1280 g/ha, visual rating about 3 weeks after treatment vs untreated controls
In short: as §4

ALOMY [20] = test: Pre-emergence action against ALOMY, 1280 g/ha; assay type: in vivo, Alopecurus myosuroides; details: visual scoring after about 3 weeks vs untreated controls, 100% = plants have died, 0% = like control plants
In short: as §3

MATIN [21] = test: Post-emergence action against MATIN, 1.28 kg/ha; assay type: in vivo, Tripleurospermum inodorum (Matricaria inodora); details: dosage 1280 g/ha, visual rating about 3 weeks after treatment vs untreated controls (100% = plants died)
In short: as §4

STEME [22] = test: Pre-emergence action against STEME, 1280 g/ha; assay type: in vivo, Stellaria media; details: scored visually after about 3 weeks vs untreated controls (100% = plants have died)
In short: as §3

AMARE [23] = test: Post-emergence action against AMARE, 1.28 kg/ha; assay type: in vivo, Amaranthus retroflexus; details: dosage 1280 g/ha, visual rating about 3 weeks after treatment vs untreated controls (100% = plants died)
In short: as §4

SETVI [24] = test: Pre-emergence action against SETVI, 1280 g/ha; assay type: in vivo, Setaria viridis; details: visual scoring after about 3 weeks vs untreated controls, 100% = plants have died, 0% = like control plants
In short: as §3

ABUTH = test: Post-emergence action against ABUTH, 1.28 kg/ha; assay type: in vivo, Abutilon theophrasti; details: dosage 1280 g/ha, visual rating about 3 weeks after treatment vs untreated controls (100% = plants died)
In short: as §4

VERPE [25] = test: Pre-emergence action against VERPE, 1280 g/ha; assay type: in vivo, Veronica persica; details: scored visually after about 3 weeks vs untreated controls (100% = plants have died)
In short: as §3

ECHCG [26] = test: Pre-emergence action against ECHCG, 1280 g/ha; assay type: in vivo, Echinochloa crus-galli; details: visual scoring after about 3 weeks vs untreated controls, 100% = plants have died, 0% = like control plants
In short: as §3

DIGSA [27] = test: Pre-emergence action at 320 g/ha against DIGSA; assay type: in vivo, Digitaria sanguinalis; details: visual scoring after about 3 weeks vs untreated controls
Source text: as §1

COC(=O)COc1nn(-c2ccccc2F)c(-c2ccc(F)nc2)c1I [VII-113]
100%: Pre-emergence action against LOLRI in % (LOLRI [2]) | Pre-emergence action against AMARE in % (AMARE [5]) | Pre-emergence action against VIOTR in % (VIOTR)
90%: Pre-emergence action against ECHGC in % (ECHGC) | Pre-emergence action against MATIN in % (MATIN [1]) | Pre-emergence action against SETVI in % (SETVI [3]) | Pre-emergence action at 320 g/ha against ALOMY in % (ALOMY [4]) | Pre-emergence action against AVEFA in % (AVEFA) | Pre-emergence action against POLCO in % (POLCO) | Pre-emergence action against VERPE in % (VERPE [6])

CCOC(=O)COc1nn(-c2ccccc2F)c(-c2ccc(F)nc2)c1C1CC1 [VII-119]
100%: Post-emergence action against LOLRI (LOLRI [7]) | Pre-emergence action against AMARE (AMARE [8]) | Pre-emergence action against POAAN (POAAN [9]) | Post-emergence action against VERPE (VERPE [10]) | Pre-emergence action against LOLRI (LOLRI [11]) | Post-emergence action against DIGSA (DIGSA [12]) | Pre-emergence action against DIGSA (DIGSA [13]) | Post-emergence action against STEME (STEME [14]) | Post-emergence action against SETVI (SETVI [15]) | Pre-emergence action against MATIN (MATIN [16]) | Post-emergence action against ECHCG (ECHCG [17]) | Post-emergence action against POAAN (POAAN [18]) | Post-emergence action against ALOMY (ALOMY [19]) | Pre-emergence action against ALOMY (ALOMY [20]) | Post-emergence action against MATIN (MATIN [21]) | Pre-emergence action against STEME (STEME [22]) | Post-emergence action against AMARE (AMARE [23]) | Pre-emergence action against SETVI (SETVI [24]) | Pre-emergence action against VERPE (VERPE [25]) | Pre-emergence action against ECHCG (ECHCG [26])
90%: Post-emergence action against ABUTH (ABUTH)

O=C(COc1nn(-c2ccccc2F)c(-c2ccnc(F)c2)c1Br)OCC1CCOC1 (stereo not shown) [VIII-011]
90%: Pre-emergence action against ECHGC in % (ECHGC) | Pre-emergence action against DIGSA (DIGSA [13]) | Pre-emergence action against MATIN in % (MATIN [1]) | Pre-emergence action against LOLRI in % (LOLRI [2]) | Pre-emergence action against SETVI in % (SETVI [3]) | Pre-emergence action against ALOMY (ALOMY [20]) | Post-emergence action against MATIN (MATIN [21]) | Post-emergence action against ABUTH (ABUTH)
100%: Pre-emergence action against AMARE (AMARE [8]) | Pre-emergence action against POAAN (POAAN [9]) | Post-emergence action against VERPE (VERPE [10]) | Pre-emergence action against LOLRI (LOLRI [11]) | Post-emergence action against DIGSA (DIGSA [12]) | Post-emergence action against SETVI (SETVI [15]) | Pre-emergence action against MATIN (MATIN [16]) | Post-emergence action against ECHCG (ECHCG [17]) | Post-emergence action against POAAN (POAAN [18]) | Post-emergence action against ALOMY (ALOMY [19]) | Pre-emergence action at 320 g/ha against ALOMY in % (ALOMY [4]) | Pre-emergence action against STEME (STEME [22]) | Post-emergence action against AMARE (AMARE [23]) | Pre-emergence action against SETVI (SETVI [24]) | Pre-emergence action against AMARE in % (AMARE [5]) | Pre-emergence action against VIOTR in % (VIOTR) | Pre-emergence action against DIGSA in % (DIGSA [27]) | Pre-emergence action against VERPE (VERPE [25]) | Pre-emergence action against ECHCG (ECHCG [26])
